Assay results: ChEMBL document CHEMBL5042510, “Structure-Guided Discovery of Aminoquinazolines as Brain-Penetrant and Selective LRRK2 Inhibitors” (J Med Chem, 2022)

Columns and labels:
[1] = Unbound brain-to-plasma concentration ratio in rat at 2.5 uM incubated for 4 hrs by equilibrium dialysis method; type: ADME, cell-free; conditions: brain and plasma (unbound), read-out: K(p,uu,brain)
[2] = Unbound brain-to-plasma concentration ratio in non-human primates by positron emission tomography; type: ADME; conditions: brain and plasma (unbound), read-out: K(p,uu,brain)
[3] = tested on: human MDR1 (P-gp); experiment: Efflux ratio of apparent permeability across basolateral to apical side over apical to basolateral side in human MDR1-transfected dog MDCKII-MDR1 cells at 0.1 to 1 uM measured after 3 hrs by LC/MS/MS analysis; type: ADME, cell-based, Canis lupus familiaris; conditions: MDCK-MDR1, dose 0.1-1 µM

Kp uu at 4 h, 2.5 µM [1]: 1.3
Kp uu [2]: 0.52
efflux ratio at 3 h, up to 1 µM [3]: 0.41
SMILES: COc1cc2ncnc(Nc3cccc(Cl)c3F)c2cc1OC(=O)N1CCN(C)C[C@H]1C [AZD-3759]
